{"source": "patent US10968200B2", "about": "“Salts of an LSD1 inhibitor and processes for preparing the same” (priority 2018, dated 2021)", "key": {"[1]": {"test": "Solubility measurement of Compound 1 di-HCl in various solvents", "assay_type": "physicochemical", "conditions": "organic solvent or mixture, thermodynamic from solid; for solubility at 36 h: 25 °C, 25±1° C., agitated 36 h; for solubility at 24 h: 50 °C, 50±1° C., agitated 24 h", "procedure": "The solubility of Compound 1 di-HCl was measured at 25±1° C. and 50±1° C. according to the following procedures.\nCompound 1 di-HCl was added to 2 mL of a solvent listed in Table 3 at 25±1° C. until the solution became cloudy. Another 10 mg of Compound 1 di-HCl was then added. The mixture was agitated at 25±1° C. for 36 h. The supernatant was filtered using a syringe filter. The saturated solution was pipetted into an HPLC vial, which was diluted with acetonitrile. The solubility of Compound 1 di-HCl was calculated for each solvent.\nCompound 1 di-HCl was added to 2 mL of a solvent listed in Table 3 at 50±1° C. until the solution became cloudy. Another 20-25 mg of Compound 1 di-HCl was then added. The mixture was agitated at 50±1° C. for 24 h. The supernatant was filtered using a warmed syringe filter at 50±1° C. The saturated solution was pipetted into an HPLC vial, which was diluted with acetonitrile. The solubility of Compound 1 di-HCl was calculated for each solvent."}, "[2]": {"test": "Solubility measurement of Compound 1 di-HCl in various solvents", "assay_type": "physicochemical", "conditions": "thermodynamic from solid; for solubility: by vision; for solubility at 24 h: agitated 24 h"}}, "note": "Structures can show the parent of a compound that is named as a salt. Where two headings read alike, the source gives them in different places."}
{"smiles": "N#CCC1(N2CCC(N[C@@H]3C[C@H]3c3ccccc3)CC2)CN(S(N)(=O)=O)C1", "note": "[Compound 1 di-HCl, 3-(cyanomethyl)-3-(4-{[(1R,2S)-2-phenylcyclopropyl]amino}piperidin-1-yl)azetidine-1-sulfonamide dihydrochloride]", "values": [{"measurement": "solubility at 36 h", "setting": "[1]; solvent 2-Methoxyethanol", "result": 45900, "unit": "µg/mL"}, {"measurement": "solubility at 36 h", "setting": "[1]; solvent Acetone", "result": 3490, "unit": "µg/mL"}, {"measurement": "solubility at 36 h", "setting": "[1]; solvent IPA", "result": 1310, "unit": "µg/mL"}, {"measurement": "solubility at 36 h", "setting": "[1]; solvent MeCN", "result": 610, "unit": "µg/mL"}, {"measurement": "solubility at 36 h", "setting": "[1]; solvent Methanol", "result": 32300, "unit": "µg/mL"}, {"measurement": "solubility at 36 h", "setting": "[1]; solvent n-BuOH", "result": 1310, "unit": "µg/mL"}, {"measurement": "solubility at 24 h", "setting": "[1]; solvent 1,4-Dioxane", "result": 310, "unit": "µg/mL"}, {"measurement": "solubility at 24 h", "setting": "[1]; solvent 1-Propanol", "result": 5210, "unit": "µg/mL"}, {"measurement": "solubility at 24 h", "setting": "[1]; solvent Dichloromethane", "result": 60, "unit": "µg/mL"}, {"measurement": "solubility at 24 h", "setting": "[1]; solvent EtOAc", "result": 30, "unit": "µg/mL"}, {"measurement": "solubility at 24 h", "setting": "[1]; solvent EtOH", "result": 3630, "unit": "µg/mL"}, {"measurement": "solubility at 24 h", "setting": "[1]; solvent Ethyl formate", "result": 50, "unit": "µg/mL"}, {"measurement": "solubility at 24 h", "setting": "[1]; solvent MEK", "result": 160, "unit": "µg/mL"}, {"measurement": "solubility at 24 h", "setting": "[1]; solvent MIBK", "result": 130, "unit": "µg/mL"}, {"measurement": "solubility at 24 h", "setting": "[1]; solvent MeCN", "result": 6290, "unit": "µg/mL"}, {"measurement": "solubility at 24 h", "setting": "[1]; solvent THF", "result": 90, "unit": "µg/mL"}, {"measurement": "solubility at 36 h", "setting": "[2]; 25 °C, organic solvent or mixture, solvent 1,4-Dioxane, 25±1° C., agitated 36 h", "result": 200, "unit": "µg/mL"}, {"measurement": "solubility at 36 h", "setting": "[2]; 25 °C, organic solvent or mixture, solvent 1-Propanol, 25±1° C., agitated 36 h", "result": 4600, "unit": "µg/mL"}, {"measurement": "solubility at 36 h", "setting": "[2]; 25 °C, organic solvent or mixture, solvent 5% Water in ACN, 25±1° C.", "result": "> 50000", "unit": "µg/mL"}, {"measurement": "solubility", "setting": "[2]; 25 °C, organic solvent or mixture, solvent 5% Water in MeOH, 25±1° C., read-out: Solubility at 25° C.", "result": "> 50000", "unit": "µg/mL"}, {"measurement": "solubility", "setting": "[2]; 25 °C, organic solvent or mixture, solvent ACN/water (9:1), 25±1° C., read-out: Solubility at 25° C.", "result": "> 50000", "unit": "µg/mL"}, {"measurement": "solubility", "setting": "[2]; 25 °C, organic solvent or mixture, solvent ACN:Water (4:1), 25±1° C., read-out: Solubility at 25° C.", "result": "> 50000", "unit": "µg/mL"}, {"measurement": "solubility", "setting": "[2]; 25 °C, organic solvent or mixture, solvent Chloroform, 25±1° C., read-out: Solubility at 25° C.", "result": "> 50000", "unit": "µg/mL"}, {"measurement": "solubility", "setting": "[2]; 25 °C, organic solvent or mixture, solvent DMF, 25±1° C., read-out: Solubility at 25° C.", "result": "> 50000", "unit": "µg/mL"}, {"measurement": "solubility", "setting": "[2]; 25 °C, organic solvent or mixture, solvent DMSO, 25±1° C., read-out: Solubility at 25° C.", "result": "> 50000", "unit": "µg/mL"}, {"measurement": "solubility at 36 h", "setting": "[2]; 25 °C, organic solvent or mixture, solvent EtOH, 25±1° C., agitated 36 h", "result": 3370, "unit": "µg/mL"}, {"measurement": "solubility at 36 h", "setting": "[2]; 25 °C, organic solvent or mixture, solvent Ethyl formate, 25±1° C., agitated 36 h", "result": 90, "unit": "µg/mL"}, {"measurement": "solubility at 36 h", "setting": "[2]; 25 °C, organic solvent or mixture, solvent MEK, 25±1° C., agitated 36 h", "result": 160, "unit": "µg/mL"}, {"measurement": "solubility at 36 h", "setting": "[2]; 25 °C, organic solvent or mixture, solvent MIBK, 25±1° C., agitated 36 h", "result": 60, "unit": "µg/mL"}, {"measurement": "solubility", "setting": "[2]; 25 °C, organic solvent or mixture, solvent MeOH/ACN (10 v/3 v), 25±1° C., read-out: Solubility at 25° C.", "result": "> 50000", "unit": "µg/mL"}, {"measurement": "solubility", "setting": "[2]; 25 °C, organic solvent or mixture, solvent MeOH/Water/ACN (6.0/0.5/1.0), 25±1° C., read-out: Solubility at 25° C.", "result": "> 50000", "unit": "µg/mL"}, {"measurement": "solubility", "setting": "[2]; 25 °C, organic solvent or mixture, solvent MeOH/water/ACN (6 v/0.5 v/3.5 v), 25±1° C., read-out: Solubility at 25° C.", "result": "> 50000", "unit": "µg/mL"}, {"measurement": "solubility at 36 h", "setting": "[2]; 25 °C, organic solvent or mixture, solvent MeOH/water/ACN (6 v/1 v/3 v), 25±1° C.", "result": "> 50000", "unit": "µg/mL"}, {"measurement": "solubility", "setting": "[2]; 25 °C, organic solvent or mixture, solvent MeOH/water/ACN (6 v/1.5 v/3 v), 25±1° C., read-out: Solubility at 25° C.", "result": "> 50000", "unit": "µg/mL"}, {"measurement": "solubility at 36 h", "setting": "[2]; 25 °C, organic solvent or mixture, solvent THF, 25±1° C., agitated 36 h", "result": 40, "unit": "µg/mL"}, {"measurement": "solubility", "setting": "[2]; 25 °C, solvent Water, 25±1° C., read-out: Solubility at 25° C.", "result": "> 50000", "unit": "µg/mL"}, {"measurement": "solubility at 24 h", "setting": "[2]; 50 °C, organic solvent or mixture, solvent 2-Methoxyethanol, 50±1° C.", "result": 48300, "unit": "µg/mL"}, {"measurement": "solubility at 24 h", "setting": "[2]; 50 °C, organic solvent or mixture, solvent 5% Water in ACN, 50±1° C.", "result": 45400, "unit": "µg/mL"}, {"measurement": "solubility", "setting": "[2]; 50 °C, organic solvent or mixture, solvent 5% Water in MeOH, 50±1° C., read-out: Solubility at 50° C.", "result": "> 50000", "unit": "µg/mL"}, {"measurement": "solubility", "setting": "[2]; 50 °C, organic solvent or mixture, solvent ACN/water (9:1), 50±1° C., read-out: Solubility at 50° C.", "result": "> 50000", "unit": "µg/mL"}, {"measurement": "solubility", "setting": "[2]; 50 °C, organic solvent or mixture, solvent ACN:Water (4:1), 50±1° C., read-out: Solubility at 50° C.", "result": "> 50000", "unit": "µg/mL"}, {"measurement": "solubility at 24 h", "setting": "[2]; 50 °C, organic solvent or mixture, solvent Acetone, 50±1° C.", "result": 850, "unit": "µg/mL"}, {"measurement": "solubility", "setting": "[2]; 50 °C, organic solvent or mixture, solvent Chloroform, 50±1° C., read-out: Solubility at 50° C.", "result": "> 50000", "unit": "µg/mL"}, {"measurement": "solubility", "setting": "[2]; 50 °C, organic solvent or mixture, solvent DMF, 50±1° C., read-out: Solubility at 50° C.", "result": "> 50000", "unit": "µg/mL"}, {"measurement": "solubility", "setting": "[2]; 50 °C, organic solvent or mixture, solvent DMSO, 50±1° C., read-out: Solubility at 50° C.", "result": "> 50000", "unit": "µg/mL"}, {"measurement": "solubility at 24 h", "setting": "[2]; 50 °C, organic solvent or mixture, solvent IPA, 50±1° C.", "result": 1910, "unit": "µg/mL"}, {"measurement": "solubility", "setting": "[2]; 50 °C, organic solvent or mixture, solvent MeOH/ACN (10 v/3 v), 50±1° C., read-out: Solubility at 50° C.", "result": "> 50000", "unit": "µg/mL"}, {"measurement": "solubility", "setting": "[2]; 50 °C, organic solvent or mixture, solvent MeOH/Water/ACN (6.0/0.5/1.0), 50±1° C., read-out: Solubility at 50° C.", "result": "> 50000", "unit": "µg/mL"}, {"measurement": "solubility", "setting": "[2]; 50 °C, organic solvent or mixture, solvent MeOH/water/ACN (6 v/0.5 v/3.5 v), 50±1° C., read-out: Solubility at 50° C.", "result": "> 50000", "unit": "µg/mL"}, {"measurement": "solubility", "setting": "[2]; 50 °C, organic solvent or mixture, solvent MeOH/water/ACN (6 v/1 v/3 v), 50±1° C., read-out: Solubility at 50° C.", "result": "> 50000", "unit": "µg/mL"}, {"measurement": "solubility", "setting": "[2]; 50 °C, organic solvent or mixture, solvent MeOH/water/ACN (6 v/1.5 v/3 v), 50±1° C., read-out: Solubility at 50° C.", "result": "> 50000", "unit": "µg/mL"}, {"measurement": "solubility at 24 h", "setting": "[2]; 50 °C, organic solvent or mixture, solvent Methanol, 50±1° C.", "result": "> 50000", "unit": "µg/mL"}, {"measurement": "solubility at 24 h", "setting": "[2]; 50 °C, organic solvent or mixture, solvent n-BuOH, 50±1° C.", "result": 2340, "unit": "µg/mL"}, {"measurement": "solubility", "setting": "[2]; 50 °C, solvent Water, 50±1° C., read-out: Solubility at 50° C.", "result": "> 50000", "unit": "µg/mL"}, {"measurement": "solubility", "setting": "[2]; MeOH/water/ACN (5 v/2 v/3 v), 25 °C, organic solvent or mixture, solvent Me0H/water/ACN (5 v/2 v/3 v), 25±1° C., read-out: Solubility at 25° C.", "result": "> 50000", "unit": "µg/mL"}, {"measurement": "solubility", "setting": "[2]; MeOH/water/ACN (5 v/2 v/3 v), 50 °C, organic solvent or mixture, solvent Me0H/water/ACN (5 v/2 v/3 v), 50±1° C., read-out: Solubility at 50° C.", "result": "> 50000", "unit": "µg/mL"}]}
